| Structure (SMILES) | melting point |
| --- | --- |
| Nc1ccc(NC(=O)c2ccccc2)cc1C(F)(F)F | 130 to 132 °C |
| CC(=O)Nc1ccc(CCN)cc1 | 121 to 123 °C |
| CC(C)(C(=O)O)c1ccccc1Cl | 111 to 113 °C |
| O=C(O)CSc1nncs1 | 157 to 159 °C |
| O=C(O)/C=C/c1ccc(Cl)s1 | 198 to 200 °C |
| NCC(O)c1ccc(OC(F)F)cc1 (configuration not stated) | 54 to 56 °C |
| CC(C)NCCc1nc(-c2ccc(S(C)(=O)=O)cc2)c[nH]1 | 264 to 266 °C |
| Nc1ccccc1CN1CCC(CO)CC1 | 79 to 81 °C |
| Cc1cccc(NC(=O)Nc2cccc(CN)c2)c1 | 163 to 165 °C |
| CC(=O)N1CCN(CC#N)CC1 | 107 to 109 °C |
| O=C(O)C1=NN(c2ccc(Cl)cc2)C(=O)CC1 | 161 to 163 °C |
| COC(=O)c1cc(Cl)c2cc(Br)ccc2n1 | 163 to 165 °C |
| COC(=O)c1c(O)c(Cl)cc(Cl)c1Cl | 113 to 115 °C |
| C=CCNC(=O)NC(C)(C)C(=O)O | 125 to 127 °C |
| CN1CCN(C2=c3ccccc3=Nc3ccc(Cl)cc3N2)CC1 | 184 to 186 °C |
| CC(Cl)C(=O)Nc1ccc(C(C)(C)C)cc1 (configuration not stated) | 143 to 145 °C |
| O=C(O)CCCn1cncn1 | 140 to 142 °C |
| Nc1nccc(-c2cccs2)n1 | 185 to 187 °C |
| Oc1ccccc1-c1nnc2n1CCCCC2 | 271 to 273 °C |
| O=C(c1cccc([N+](=O)[O-])c1)C(F)(F)F | 53 to 55 °C |
| c1cncc(CNC2=NCCS2)c1 | 90 to 92 °C |
| Nc1cc(C(=O)O)ccc1-n1cnnc1 | 334 to 336 °C |
| O=C1COc2c(Br)cc(Cl)cc21 | 139 to 141 °C |
| NCC1(O)Cc2ccccc2C1 | 64 to 66 °C |

| Structure (SMILES) | melting point |
| --- | --- |
| Cc1cc(C)c(C)c(Oc2c(C#N)c(C)nn2C)c1 | 69 to 71 °C |
| O=C(O)CC(Cc1ccccc1)c1ccccc1 (configuration not stated) | 90 to 92 °C |
| O=C(O)CN(CCCCCCN(CC(=O)O)CC(=O)O)CC(=O)O | 237 to 241 °C |
| O=C(O)C1(O)CCCC1 | 84 to 86 °C |
| CCCN1C(=O)CC(=O)NC1=S | 127 to 129 °C |
| CCCN1C(=O)NC(C)(C)C1=O | 109 to 111 °C |
| O=C(O)CCCOc1ccc(F)cc1F | 74 to 76 °C |
| O=C1C=CC(=O)N1c1cccc(C(F)(F)F)c1 | 67 to 69 °C |
| CN(C)C(=O)COc1ccccc1C(=O)O | 127 to 129 °C |
| NC(=O)C1CCCN(C(=O)c2cc(Cl)ccc2N)C1 (configuration not stated) | 229 to 231 °C |
| Cc1ccc(S(=O)(=O)Nc2cccc(C(F)(F)F)c2)cc1N | 116 to 118 °C |
| COC(=O)c1ccncc1C(=O)OC | 55 to 57 °C |
| Clc1noc(-c2ccsc2)n1 | 108 to 110 °C |
| CNCCCc1cc(-c2ccccc2)n[nH]1 | 98 to 100 °C |
| Cn1c(=O)[nH]c2cc(C(=O)O)ccc21 | 391 to 393 °C |
| Nc1cc(C(=O)O)ccc1Br | 226 to 230 °C |
| NNC(=S)N1CCOCC1 | 181 to 183 °C |
| CC(Cl)C(=O)NC(C)(C)C (configuration not stated) | 84 to 86 °C |
| O=C(O)CCSCc1ccccn1 | 74 to 76 °C |
| Cc1ccc(-n2c(C)cc(C=O)c2C)cc1 | 102 to 104 °C |
| Clc1nc(CSc2ccccc2)nc2sc3c(c12)CCCC3 | 55 to 57 °C |
| O=C(Nc1cnccn1)C1CCCNC1 (configuration not stated) | 141 to 143 °C |
| CC(=O)c1csc(C(=O)O)c1 | 149 to 151 °C |
| O=C(NCc1ccco1)n1ccnc1 | 145 to 147 °C |

| Structure (SMILES) | melting point |
| --- | --- |
| Cc1nn(C(C)(C)C)c(C)c1S(=O)(=O)Cl | 68 to 70 °C |
| O=C(Cc1ccccc1)Nc1ccccc1C(=O)O | 192 to 194 °C |
| O=C(O)c1cc(Br)c[nH]1 | 169 to 171 °C |
| COC(=O)c1sc2nc(CCl)nc(Cl)c2c1C | 125 to 127 °C |
| c1ccc2sc(NC3CCCCC3)nc2c1 | 100 to 102 °C |
| CC(C)(C)Oc1ccc(C(=O)O)cc1 | 139 to 141 °C |
| O=[N+]([O-])c1cnc(Cl)c(Cl)c1 | 52 to 54 °C |
| CC(C)CC(CCC(=O)O)C(=O)O (configuration not stated) | 66 to 68 °C |
| CS(=O)(=O)c1cc(N)cc(C(=O)O)c1 | 257 to 259 °C |
| CC(=O)c1ccc(S(=O)(=O)N(C)CCCC(=O)O)cc1 | 80 to 82 °C |
| CC(C)(C)OC(=O)NC1CCN(Cc2cc(Cl)cc(Cl)c2)CC1 | 145 to 147 °C |
| CC(C)NC(=O)c1ccccc1N | 148 to 150 °C |
| O=C1CC2(CCCC2)C(=O)N1 | 105 to 107 °C |
| COC(C#N)c1ccc([N+](=O)[O-])cc1 (configuration not stated) | 42 to 44 °C |
| COc1ccc(-c2nn(CCC#N)cc2C(=O)O)cc1[N+](=O)[O-] | 190 to 192 °C |
| COc1ccccc1Nc1ccc(N)cc1 | 73 to 75 °C |
| COc1ccc(NC(=O)CC#N)cc1Cl | 110 to 112 °C |
| CC(=O)c1cc(S(N)(=O)=O)ccc1C | 124 to 126 °C |
| NS(=O)(=O)c1ccc(OCc2ccccc2Cl)cc1 | 179 to 181 °C |
| COC(=O)c1ccnc(C#N)c1 | 109 to 111 °C |
| O=C(NC(Cc1cccnc1)C(=O)O)c1ccccc1 (configuration not stated) | 176 to 178 °C |
| CC(CC(=O)O)c1ccc(F)cc1 (configuration not stated) | 64 to 66 °C |
| COCCOc1cc2c(cc1C=O)OCO2 | 84 to 86 °C |
| O=C(CCl)NCCC(c1ccccc1)c1ccccc1 | 104 to 107 °C |

More lines, now with the values ahead:

| melting point | Structure (SMILES) |
| --- | --- |
| 174 to 176 °C | Nc1nnc(CC2CCCC2)o1 |
| 182 to 184 °C | O=C(O)C1CCCN1S(=O)(=O)c1cccc([N+](=O)[O-])c1 (configuration not stated) |
| 101 to 103 °C | COc1ccc(-c2csc(CC#N)n2)cc1OC |
| 112 to 114 °C | CC(=O)N1CCCCC1CC(=O)O (configuration not stated) |
| 211 to 213 °C | O=C1COc2ccc(Cl)cc2N1 |
| 164 to 166 °C | Cc1cc(C)cc(-n2nnnc2S)c1 |
| 162 to 164 °C | O=C(O)C1CCCN1C(=O)c1cc(Cl)cc(Cl)c1 (configuration not stated) |
| 242 to 244 °C | O=C(O)c1cc(-c2ccccc2)nc2c1cnn2Cc1ccco1 |
| 131 to 133 °C | CC(C)(C)OC(=O)Nc1ccc(O)cc1 |
| 116 to 118 °C | Cc1cc(CC(=O)O)n[nH]1 |
| 130 to 132 °C | CC1Nc2ccccc2NC1=O (configuration not stated) |
| 66 to 68 °C | Cc1ccc(S(=O)(=O)N(C)Cc2ccc(C(=O)NN)cc2)cc1 |
| 126 to 128 °C | N#CC1(NC(=O)c2ccccc2)CCC1 |
| 120 to 122 °C | COc1ccc(-c2nc(N)sc2C)cc1 |
| 117 to 119 °C | O=C(CCl)NC1CCN(C(=O)CCc2ccccc2)CC1 |
| 149 to 151 °C | O=c1cc(CCl)nc2ccc(Cl)cn12 |
| 213 to 215 °C | Cc1ccc(-c2ccc(C(=O)O)c(F)c2)cc1C |
| 75 to 77 °C | O=C(O)c1cccc(OC2CCCCC2)c1 |
| 141 to 143 °C | CCOC(=O)c1cnn2cc(Br)cnc12 |
| 221 to 223 °C | O=C(O)c1cc2c(cc1[N+](=O)[O-])OCCO2 |
| 227 to 229 °C | CC1(c2cc(F)ccc2F)NC(=O)NC1=O (configuration not stated) |
| 156 to 158 °C | CC1(O)C(=O)Nc2ccccc21 (configuration not stated) |
| 69 to 71 °C | CC(C)CCNC(=O)CC(=O)NCCC(C)C |
| 201 to 203 °C | O=C1Nc2ccc(Br)cc2C12CCCC2 |

| melting point | Structure (SMILES) |
| --- | --- |
| 41 to 43 °C | COc1ccc(COCC(=O)O)cc1 |
| 100 to 102 °C | Cc1ccc(CC(=O)c2ccc(C)cc2)cc1 |
| 186 to 188 °C | N#Cc1c(F)cccc1Oc1ccc(C(=O)O)cc1 |
| 270 to 273 °C | Cc1ccc(-c2ccsc2C(=O)NN)cc1 |
| 82 to 84 °C | ClC(Cl)c1nnc(-c2ccccc2)o1 |
| 135 to 137 °C | CCc1cc(O)ncn1 |
| 188 to 190 °C | Cc1cc2oc(=O)cc(CCl)c2cc1C |
| 51 to 53 °C | FC(F)(F)Oc1cccc2c(Cl)ccnc12 |
| 88 to 90 °C | O=S(=O)(c1cccnc1)N1CCNCC1 |
| 199 to 201 °C | Cn1cc(C(=O)O)c(C(F)F)n1 |
| 162 to 164 °C | CCc1cc(=O)[nH]c(-c2ccccc2)n1 |
| 159 to 161 °C | Cn1c(O)c([N+](=O)[O-])c(=O)c2ccccc21 |
| 76 to 78 °C | CCOC(=O)C(=O)CC(=O)c1cc(Cl)ccc1Cl |
| 188 to 190 °C | O=C(O)CNC(=O)c1cc(Cl)ccn1 |
| 200 to 202 °C | CS(=O)Cc1cc(N)ccc1Cl (configuration not stated) |
| 80 to 90 °C | Cc1nn(CC(C)C)c(C)c1CCC(=O)O |
| 193 to 197 °C | O=C(O)c1cc(-c2ccc(F)cc2)nc2ccccc12 |
| 242 to 244 °C | N=C(N)Nc1nc2ccccc2[nH]1 |
| 115 to 117 °C | Cn1nc(Br)c2c(Cl)ncnc21 |
| 127 to 129 °C | O=S(=O)(Cl)c1ccc2c(Cl)ccc(Cl)c2c1 |
| 139 to 141 °C | N#Cc1ccc(Nc2ccc(Cl)cc2)cc1 |
| 89 to 91 °C | CC1(O)CN(C(=O)OC(C)(C)C)C1 |
| 260 to 262 °C | O=C(O)c1ccc(-c2ccc(Cl)cc2)s1 |
| 216 to 218 °C | NC(=O)c1ccc(I)cc1 |

| melting point | Structure (SMILES) |
| --- | --- |
| 187 to 189 °C | CC(C)C(=O)Nc1nc(CC(=O)O)cs1 |
| 53 to 55 °C | OCCOc1ccc(Br)cc1 |
| 63 to 65 °C | COCCCNC(=O)CC#N |
| 173 to 177 °C | CN1CN=C(S)NC1 |
| 218 to 220 °C | NC(=O)c1ccc(NCCO)c([N+](=O)[O-])c1 |
| 79 to 81 °C | Cc1nc(-c2ccccc2F)sc1C(C)O (configuration not stated) |
| 230 to 232 °C | Cc1c[nH]c(=O)n1-c1ccc(C#N)cc1 |
| 162 to 164 °C | Cc1n[nH]c(C)c1-c1ccccc1N |
| 98 to 100 °C | Cc1c(S(=O)(=O)Cl)cnn1-c1ccccc1Cl |
| 218 to 220 °C | O=c1cc2c(n[nH]1)CCOC2 |
| 167 to 169 °C | COc1cccc(-n2cnnc2S)c1 |
| 207 to 209 °C | CCCCn1c(N)c(NCc2ccccc2)c(=O)[nH]c1=O |
| 88 to 90 °C | Brc1ccc(NCc2cccnc2)cc1 |
| 195 to 205 °C | CC(C)c1ccc(S(=O)(=O)NCCC(=O)O)cc1 |
| 149 to 151 °C | O=C(O)c1cc(S(=O)(=O)NCc2ccco2)c(Cl)cc1Cl |
| 162 to 164 °C | CC(C)c1nc(S(=O)(=O)Cl)c[nH]1 |
| 174 to 176 °C | NS(=O)(=O)c1ccc(C(F)(F)F)cn1 |
| 144 to 146 °C | O=C(Nc1ccc(Br)cn1)C1CCNCC1 |
| 77 to 79 °C | Nc1ccc(Sc2cccs2)cn1 |
| 275 to 277 °C | Cc1cc(O)nc(-c2ccc(-c3ccccc3)cc2)n1 |
| 88 to 90 °C | CC(CC(=O)O)c1ccc(C(F)(F)F)cc1 (configuration not stated) |
| 138 to 140 °C | CCC(C)(C#N)NC(=O)c1ccccc1 (configuration not stated) |

Reference: a melting point compilation (Tetko et al.)
